US7531507B2, “Acylated nonadepsipeptides containing pyridyl alanine residues” (AiCuris GmbH & Co. KG, priority 2004, dated 2009)
Non-standard residues stand in square brackets, D forms with d. Residues, ends and D or L forms follow the SMILES beside them. *: point of attachment. X2 = CC(C)(C)C[C@@H](N)C(=O)N[C@@H](Cc1cccnc1)C(=O)N[C@H](C(N)=O)[C@H](O*)c1ccccc1; Asn(3S-OH) = NC(=O)[C@@H](O)[C@H](N)C(=O)O; X1 = CC(C)[C@@H](O)[C@H](C)C(=O)*; aThr = C[C@H](O)[C@H](N)C(=O)O

Assays:
[1] = Determination of the free fraction (fu) in plasma via Transil or ultrafiltration; assay type: in vitro ADME, rat; settings: rat, plasma
Experimental: Principle of the Determination of the Free Fraction via Transil:
The method described herein for determining the free fraction (fu) of a test substance is divided into 2 parts:
a) Determination of the Transil®/buffer partitioning ratio (MAbuffer) by incubating the test substance in a Transil® buffer (pH 7.4) dispersion and subsequently determining the concentration in the dispersion and in the buffer supernatant.
b) Determination of the Transil®/plasma partitioning ratio (MAplasma) by incubating the test substance in a Transil® plasma dispersion and subsequently determining the concentration in the dispersion and in the plasma.
The quotient of the two partitioning ratios gives fu.
Where substances are highly protein-bound, the plasma is usually diluted with isotonic phosphate buffer (pH 7.4) and then suspended with Transil®. Determination of fu′ (free fraction in diluted plasma) in this diluted protein solution takes place in analogy to the determination of fu. The free fraction in undiluted plasma is calculated from fu′ and the dilution factor.
Concerning this method, compare also: Schuhmacher, Joachim; Kohlsdorfer, Christian; Buehner, Klaus; Brandenburger, Tim; Kruk, Renate, “High-throughput determination of the free fraction of drugs strongly bound to plasma proteins.” Journal of Pharmaceutical Sciences 2004, 93, 816-830.
Determination of the Membrane Affinity of a Test Substance After Partitioning Between Transil® and Buffer (MAbuffer):
All incubations are carried out in suitable glass vessels, e.g. glass vials, ground-joint test tubes. The total volume is usually 0.5-5 ml, and the Transil® volume is 10-100 μl. If the membrane affinities are expected to be high, the Transil® dispersion can be diluted up to 20 times with phosphate buffer of pH 7.4, e.g. Dulbecco's PBS. Phosphate buffer of pH 7.4 is introduced into the incubation vessels, and the Transil® is pipetted in after thorough mixing. The test substance is pipetted in at a concentration of, for example, 200 ng/ml, n=6. The proportion of organic solvents should be ≦2%. The mixtures are incubated at room temperature i.e. on a mini-shaker at an angle of about 45°, at about 400 rpm for 30 min. The 100% value is determined by taking at least one aliquot of, for example, 100 μl, and the remaining mixture is centrifuged at about 1800 g for about 10 min. […]
The plasma of the species to be investigated is filtered through a semipermeable membrane. The concentration of substance in the filtrate is measured, and the free fraction fU is calculated therefrom. […] The concentration of substance in the ultrafiltrate (Cu, unbound substance concentration) and in the plasma before centrifugation (C; total substance concentration) is measured. The free fraction is calculated by the formula fu (%)=Cu/C*100.

[2] = tested on: Streptococcus pneumoniae G9a; assay type: cell-based; settings: G9a
Experimental: (§1) Determination of the Minimum Inhibitory Concentration (MIC):
(§2) The MIC is determined in the liquid dilution test in accordance with the NCCLS guidelines. Overnight cultures of Staphylococcus aureus 133, Enterococcus faecalis 27159, E. faecium 4147 and Streptococcus pneumoniae G9a are incubated with the described test substances in a 1:2 dilution series. The MIC determination is carried out with a cell count of 10^5 microbes per ml in Isosensitest medium (Difco, Irvine/USA), with the exception of S. pneumoniae which is tested in BHI broth (Difco, Irvine/USA) with 10% bovine serum with a cell count of 10^6 microbes per ml. The cultures are incubated at 37° C. for 18-24 hours, S. pneumoniae in the presence of 10% CO2.
(§3) The MIC is defined as the lowest concentration of each substance at which visible bacterial growth no longer occurs. The MIC values are reported in μg/ml.

[3] = tested on: Staphylococcus aureus 133; assay type: cell-based; settings: 133
Experimental: as §1, §2, §3

E. faecalis ICB 27159 = assay type: cell-based, Enterococcus faecalis; settings: ICB 27159
Experimental: as §1, §2, §3

E. faecium L4001 = assay type: cell-based, Enterococcus faecium; settings: L4001

SMILES: CC[C@H](C)[C@H](NC(=O)[C@@H](CCCNC(=N)N)NC(=O)[C@H](CC(C)C)NC(=O)[C@@H](C)[C@H](O)C(C)C)C(=O)N[C@H](C(=O)NCC(=O)N[C@H](C(=O)N[C@@H](CO)C(=O)O[C@H](c1ccccc1)[C@H](NC(=O)[C@H](Cc1cccnc1)NC(=O)[C@H](N)CC(C)(C)C)C(N)=O)[C@H](O)C(N)=O)[C@H](C)O.O=C(O)C(F)(F)F.O=C(O)C(F)(F)F.O=C(O)C(F)(F)F [Example 5, 3-tert-Butyl-D-alanyl-3-(pyridin-3-yl)-L-alanyl-de(1-D-leucyl-2-L-leucyl)lysobactin tristrifluoroacetate, reference compound] (X1-L[dR]I[aThr]G[Asn(3S-OH)]S-X2)
- fraction unbound at 30 min [1]: 0.086
- MIC S. pneumoniae G9a [2]: 0.5 µg/mL
- MIC S. aureus 133 [3]: 0.5 µg/mL
- MIC E. faecalis ICB 27159 (E. faecalis ICB 27159): 1 µg/mL
- MIC E. faecium L4001 (E. faecium L4001): 1 µg/mL
